According to PubChem BioAssay (NCI):
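96-well plates; 48 h exposure; 5 concentrations. Endpoints by linear interpolation between flanking doses. Not reached: highest tested concentration assigned. GI50 = concentration required for 50% inhibition of growth. TGI is the concentration that stops growth completely.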

Columns and labels:
Test in all cases: NCI-60 cell line screen, 48 h
OVCAR-3 ovarian = tested on: OVCAR-3 ovarian
T-47D breast = tested on: T-47D breast
MALME-3M melanoma = tested on: MALME-3M melanoma
HCT-116 colon = tested on: HCT-116 colon
SNB-75 CNS = tested on: SNB-75 CNS
SF-539 CNS = tested on: SF-539 CNS
UO-31 renal = tested on: UO-31 renal
SF-295 CNS = tested on: SF-295 CNS
IGROV1 ovarian = tested on: IGROV1 ovarian
HT29 colon = tested on: HT29 colon
LOX IMVI melanoma = tested on: LOX IMVI melanoma
HOP-62 NSCLC = tested on: HOP-62 NSCLC
M14 melanoma = tested on: M14 melanoma
A549 NSCLC = tested on: A549 NSCLC
BT-549 breast = tested on: BT-549 breast
OVCAR-5 ovarian = tested on: OVCAR-5 ovarian
HL-60(TB) leukemia = tested on: HL-60(TB) leukemia
ACHN renal = tested on: ACHN renal
MOLT-4 leukemia = tested on: MOLT-4 leukemia
HCC-2998 colon = tested on: HCC-2998 colon
HOP-92 NSCLC = tested on: HOP-92 NSCLC
EKVX NSCLC = tested on: EKVX NSCLC
DU-145 prostate = tested on: DU-145 prostate
NCI-H226 lung = tested on: NCI-H226 lung
U251 CNS = tested on: U251 CNS
786-0 renal = tested on: 786-0 renal
MCF7 breast = tested on: MCF7 breast
KM12 colon = tested on: KM12 colon
A498 renal = tested on: A498 renal
SN12C renal = tested on: SN12C renal
SW-620 colon = tested on: SW-620 colon
NCI-H460 lung = tested on: NCI-H460 lung
HCT-15 colon = tested on: HCT-15 colon
MDA-MB-435 = tested on: MDA-MB-435
SK-MEL-2 melanoma = tested on: SK-MEL-2 melanoma
CAKI-1 renal = tested on: CAKI-1 renal
SR leukemia = tested on: SR leukemia
UACC-257 melanoma = tested on: UACC-257 melanoma
OVCAR-8 ovarian = tested on: OVCAR-8 ovarian
SNB-19 CNS = tested on: SNB-19 CNS
SK-OV-3 ovarian = tested on: SK-OV-3 ovarian
NCI/ADR-RES ovarian = tested on: NCI/ADR-RES ovarian
SK-MEL-28 melanoma = tested on: SK-MEL-28 melanoma
SK-MEL-5 melanoma = tested on: SK-MEL-5 melanoma
MDA-MB-231 breast = tested on: MDA-MB-231 breast
OVCAR-4 ovarian = tested on: OVCAR-4 ovarian
UACC-62 melanoma = tested on: UACC-62 melanoma
NCI-H522 lung = tested on: NCI-H522 lung
TK-10 renal = tested on: TK-10 renal
PC-3 prostate = tested on: PC-3 prostate
K-562 leukemia = tested on: K-562 leukemia
COLO 205 colon = tested on: COLO 205 colon
RXF 393 renal = tested on: RXF 393 renal
CCRF-CEM leukemia = tested on: CCRF-CEM leukemia
SF-268 CNS = tested on: SF-268 CNS
NCI-H23 lung = tested on: NCI-H23 lung

O=C(O)CCCCCNCc1cc2cc3c(cc2c2cc(OCc4ccccc4)ccc12)OCO3
GI50 (OVCAR-3 ovarian): 2.11 µM
TGI (OVCAR-3 ovarian): 5.06 µM
GI50 (T-47D breast): 2.06 µM
TGI (T-47D breast): 5.04 µM
GI50 (MALME-3M melanoma): 1.88 µM
TGI (MALME-3M melanoma): 3.57 µM
GI50 (HCT-116 colon): 1.58 µM
TGI (HCT-116 colon): 3.48 µM
GI50 (SNB-75 CNS): 2.96 µM
TGI (SNB-75 CNS): 8.81 µM
GI50 (SF-539 CNS): 1.9 µM
TGI (SF-539 CNS): 3.62 µM
GI50 (UO-31 renal): 4.01 µM
TGI (UO-31 renal): 13.9 µM
GI50 (SF-295 CNS): 1.84 µM
TGI (SF-295 CNS): 3.61 µM
GI50 (IGROV1 ovarian): 2.96 µM
TGI (IGROV1 ovarian): 10.1 µM
GI50 (HT29 colon): 1.73 µM
TGI (HT29 colon): 3.53 µM
GI50 (LOX IMVI melanoma): 1.62 µM
TGI (LOX IMVI melanoma): 3.1 µM
GI50 (HOP-62 NSCLC): 2 µM
TGI (HOP-62 NSCLC): 5.25 µM
GI50 (M14 melanoma): 1.9 µM
TGI (M14 melanoma): 3.51 µM
GI50 (A549 NSCLC): 1.55 µM
TGI (A549 NSCLC): 3.17 µM
GI50 (BT-549 breast): 6.68 µM
TGI (BT-549 breast): 24.1 µM
GI50 (OVCAR-5 ovarian): 2.33 µM
TGI (OVCAR-5 ovarian): 5.23 µM
GI50 (HL-60(TB) leukemia): 2.32 µM
TGI (HL-60(TB) leukemia): 6.85 µM
GI50 (ACHN renal): 3.48 µM
TGI (ACHN renal): 13.2 µM
GI50 (MOLT-4 leukemia): 2.23 µM
TGI (MOLT-4 leukemia): 24.2 µM
GI50 (HCC-2998 colon): 1.71 µM
TGI (HCC-2998 colon): 3.37 µM
GI50 (HOP-92 NSCLC): 1.38 µM
TGI (HOP-92 NSCLC): 2.98 µM
GI50 (EKVX NSCLC): 4.01 µM
TGI (EKVX NSCLC): 17.9 µM
GI50 (DU-145 prostate): 2.37 µM
TGI (DU-145 prostate): 5.47 µM
GI50 (NCI-H226 lung): 4.37 µM
TGI (NCI-H226 lung): 21.9 µM
GI50 (U251 CNS): 1.73 µM
TGI (U251 CNS): 3.28 µM
GI50 (786-0 renal): 1.68 µM
TGI (786-0 renal): 3.25 µM
GI50 (MCF7 breast): 1.68 µM
TGI (MCF7 breast): 3.21 µM
GI50 (KM12 colon): 1.63 µM
TGI (KM12 colon): 3.19 µM
GI50 (A498 renal): 3.17 µM
TGI (A498 renal): 13.2 µM
GI50 (SN12C renal): 5.42 µM
TGI (SN12C renal): 19.8 µM
GI50 (SW-620 colon): 1.5 µM
TGI (SW-620 colon): 3.1 µM
GI50 (NCI-H460 lung): 1.7 µM
TGI (NCI-H460 lung): 3.33 µM
GI50 (HCT-15 colon): 2.03 µM
TGI (HCT-15 colon): 5.88 µM
GI50 (MDA-MB-435): 1.78 µM
TGI (MDA-MB-435): 3.3 µM
GI50 (SK-MEL-2 melanoma): 2.22 µM
TGI (SK-MEL-2 melanoma): 4.6 µM
GI50 (CAKI-1 renal): 3.17 µM
TGI (CAKI-1 renal): 12 µM
GI50 (SR leukemia): 1.7 µM
TGI (SR leukemia): 5.3 µM
GI50 (UACC-257 melanoma): 3.38 µM
TGI (UACC-257 melanoma): 10.9 µM
GI50 (OVCAR-8 ovarian): 1.61 µM
TGI (OVCAR-8 ovarian): 3.21 µM
GI50 (SNB-19 CNS): 4.05 µM
TGI (SNB-19 CNS): 20.7 µM
GI50 (SK-OV-3 ovarian): 5.11 µM
TGI (SK-OV-3 ovarian): 19.9 µM
GI50 (NCI/ADR-RES ovarian): 2.88 µM
TGI (NCI/ADR-RES ovarian): 11.1 µM
GI50 (SK-MEL-28 melanoma): 1.78 µM
TGI (SK-MEL-28 melanoma): 3.33 µM
GI50 (SK-MEL-5 melanoma): 1.65 µM
TGI (SK-MEL-5 melanoma): 3.3 µM
GI50 (MDA-MB-231 breast): 1.88 µM
TGI (MDA-MB-231 breast): 3.88 µM
GI50 (OVCAR-4 ovarian): 3.26 µM
TGI (OVCAR-4 ovarian): 12.6 µM
GI50 (UACC-62 melanoma): 1.8 µM
TGI (UACC-62 melanoma): 3.44 µM
GI50 (NCI-H522 lung): 1.76 µM
TGI (NCI-H522 lung): 3.45 µM
GI50 (TK-10 renal): 2.63 µM
TGI (TK-10 renal): 5.99 µM

COc1cc2c(c(O)c1OC)C(O)C1CCC(=O)N1C2c1ccc2c(c1)OCO2 (configuration not stated)
TGI (OVCAR-3 ovarian): > 100 µM
TGI (T-47D breast): > 100 µM
TGI (MALME-3M melanoma): > 100 µM
TGI (HCT-116 colon): > 100 µM
TGI (SNB-75 CNS): > 100 µM
TGI (SF-539 CNS): > 100 µM
TGI (UO-31 renal): > 100 µM
TGI (SF-295 CNS): > 100 µM
TGI (IGROV1 ovarian): > 100 µM
TGI (HT29 colon): > 100 µM
TGI (LOX IMVI melanoma): > 100 µM
TGI (HOP-62 NSCLC): > 100 µM
TGI (PC-3 prostate): > 100 µM
TGI (M14 melanoma): > 100 µM
TGI (A549 NSCLC): > 100 µM
TGI (BT-549 breast): > 100 µM
TGI (OVCAR-5 ovarian): > 100 µM
TGI (HL-60(TB) leukemia): > 100 µM
TGI (ACHN renal): > 100 µM
TGI (MOLT-4 leukemia): > 100 µM
TGI (HCC-2998 colon): > 100 µM
TGI (HOP-92 NSCLC): > 100 µM
TGI (EKVX NSCLC): > 100 µM
TGI (DU-145 prostate): > 100 µM
TGI (NCI-H226 lung): > 100 µM
TGI (U251 CNS): > 100 µM
TGI (786-0 renal): > 100 µM
TGI (MCF7 breast): > 100 µM
TGI (KM12 colon): > 100 µM
TGI (A498 renal): > 100 µM
TGI (SN12C renal): > 100 µM
TGI (K-562 leukemia): > 100 µM
TGI (SW-620 colon): > 100 µM
TGI (NCI-H460 lung): > 100 µM
TGI (HCT-15 colon): > 100 µM
TGI (MDA-MB-435): > 100 µM
TGI (CAKI-1 renal): > 100 µM
TGI (SR leukemia): > 100 µM
TGI (UACC-257 melanoma): > 100 µM
TGI (COLO 205 colon): > 100 µM
TGI (RXF 393 renal): > 100 µM
TGI (OVCAR-8 ovarian): > 100 µM
TGI (SNB-19 CNS): > 100 µM
TGI (SK-OV-3 ovarian): > 100 µM
TGI (NCI/ADR-RES ovarian): > 100 µM
TGI (CCRF-CEM leukemia): > 100 µM
TGI (SK-MEL-28 melanoma): > 100 µM
TGI (SF-268 CNS): > 100 µM
TGI (MDA-MB-231 breast): > 100 µM
TGI (OVCAR-4 ovarian): > 100 µM
TGI (NCI-H23 lung): > 100 µM
TGI (UACC-62 melanoma): > 100 µM
TGI (NCI-H522 lung): > 100 µM
TGI (TK-10 renal): > 100 µM
